According to BigSolDB 2.1:

CCOC(=O)C1=C[C@]2(CC)CCCN3CCc4c(n1c1ccccc41)[C@@H]32
solubility (mole fraction)
Details	in 2-butanone	in cyclohexane	in ethanol	in ethyl acetate	in isopropanol	in methanol	in methyl acetate	in n-butanol	in n-propanol
283.15 K	0.00526	0.00133	0.000492	0.0039	0.000345	0.000378	0.00262	0.000936	0.000727
288.15 K	0.00649	0.0017	0.000641	0.00481	0.000474	0.000476	0.00329	0.00127	0.00098
293.15 K	0.00793	0.00216	0.00082	0.00585	0.000643	0.000608	0.00416	0.0017	0.00126
298.15 K	0.00962	0.00274	0.00101	0.00718	0.000834	0.000736	0.00517	0.0022	0.00164
303.15 K	0.0118	0.00346	0.00126	0.00879	0.00108	0.00089	0.00646	0.00285	0.00208
308.15 K	0.0142	0.00433	0.00158	0.0106	0.00137	0.0011	0.00794	0.00374	0.00268
313.15 K	0.017	0.00537	0.00197	0.0127	0.00184	0.00136	0.00973	0.0048	0.00343
318.15 K	0.0203	0.00656	0.00245	0.0154	0.00245	0.00166	0.0121	0.00632	0.00435
323.15 K	0.0239	0.00802	0.00302	0.0185	0.00323	0.00204	0.0148	0.00806	0.00528
